According to PubChem BioAssay (NCI):
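Dose response: 5 concentrations. Exposure: 48 h. Format: 96-well plates. Endpoint: linear interpolation; highest concentration if not reached. TGI: concentration producing complete growth inhibition.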

Assays:
Assay in all cases: growth of human tumour cells (NCI), 48 h
[1] = system: UACC-257 melanoma
[2] = system: NCI-H460 lung
[3] = system: UACC-62 melanoma
[4] = system: SNB-19 CNS
[5] = system: SF-268 CNS
[6] = system: U251 CNS
[7] = system: SF-295 CNS
[8] = system: HT29 colon
[9] = system: HOP-62 NSCLC
[10] = system: RXF 393 renal
[11] = system: CCRF-CEM leukemia
[12] = system: NCI-H23 lung
[13] = system: IGROV1 ovarian
[14] = system: SNB-78 CNS
[15] = system: LXFL 529 NSCLC
[16] = system: SF-539 CNS
[17] = system: OVCAR-4 ovarian
[18] = system: ACHN renal
[19] = system: HOP-92 NSCLC
[20] = system: COLO 205 colon
[21] = system: KM20L2 colon
[22] = system: HL-60(TB) leukemia
[23] = system: DMS 114 small cell lung
[24] = system: OVCAR-3 ovarian
[25] = system: RPMI-8226 leukemia
[26] = system: M19-MEL melanoma
[27] = system: MALME-3M melanoma
[28] = system: UO-31 renal
[29] = system: SK-OV-3 ovarian
[30] = system: HCT-116 colon
[31] = system: KM12 colon
[32] = system: SK-MEL-28 melanoma
[33] = system: A498 renal
[34] = system: SNB-75 CNS
[35] = system: OVCAR-5 ovarian
[36] = system: M14 melanoma
[37] = system: SK-MEL-2 melanoma
[38] = system: HCT-15 colon
[39] = system: DU-145 prostate
[40] = system: MDA-N
[41] = system: NCI-H522 lung
[42] = system: HCC-2998 colon
[43] = system: A549 NSCLC
[44] = system: NCI/ADR-RES ovarian
[45] = system: MCF7 breast
[46] = system: EKVX NSCLC
[47] = system: SN12C renal
[48] = system: T-47D breast
[49] = system: 786-0 renal
[50] = system: PC-3 prostate
[51] = system: BT-549 breast
[52] = system: SK-MEL-5 melanoma
[53] = system: NCI-H226 lung
[54] = system: MOLT-4 leukemia
[55] = system: SW-620 colon
[56] = system: OVCAR-8 ovarian
[57] = system: SR leukemia
[58] = system: MDA-MB-435
[59] = system: LOX IMVI melanoma
[60] = system: HS 578T breast
[61] = system: MDA-MB-231 breast
[62] = system: CAKI-1 renal
[63] = system: K-562 leukemia
[64] = system: TK-10 renal

Measured: TGI

CCCCOP(=O)(OCCCC)/C(C#N)=C/c1ccco1
> 100 µM: [1] | [2] | [3] | [4] | [5] | [6] | [7] | [8] | [9] | [10] | [11] | [12] | [13] | [14] | [15] | [16] | [17] | [18] | [19] | [20] | [21] | [22] | [23] | [24] | [25] | [26] | [27] | [28] | [29] | [30] | [31] | [32] | [33] | [34] | [35] | [36] | [37]

CCC(CC)C(=O)OC[n+]1cccc(-c2c(COC(=O)NC(C)C)c(COC(=O)NC(C)C)c3n2CCC3)c1
> 100 µM: [1] | [2] | [3] | [4] | [5] | [38] | [6] | [39] | [40] | [7] | [41] | [8] | [9] | [42] | [10] | [43] | [11] | [12] | [13] | [44] | [45] | [46] | [47] | [16] | [17] | [48] | [18] | [19] | [20] | [22] | [49] | [24] | [25] | [50] | [51] | [52] | [27] | [53] | [54] | [55] | [28] | [56] | [57] | [58] | [29] | [30] | [59] | [60] | [61] | [31] | [32] | [62] | [33] | [34] | [63] | [35] | [36] | [37] | [64]
